{"source": "the supplement of paper PMC4862054", "data": [{"tested_on": "SK-BR-3", "assay": "normalised response (% of control), CellTiter-Glo; higher = more viable cells (100 = DMSO, 0 = benzethonium chloride kill control)", "details": "incubation time: 72 h", "description": "(§1)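 DSRT, 72 h incubation, CellTox Green / CellTiter-Glo readout. Signal is normalised to DMSO and benzethonium chloride controls. Value is the normalised response at the highest dose.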", "units": {"normalised response": "%"}, "values": [{"smiles": "CCCCC(=O)OCC(=O)[C@]1(O)Cc2c(O)c3c(c(O)c2[C@@H](O[C@H]2C[C@H](NC(=O)C(F)(F)F)[C@H](O)[C@H](C)O2)C1)C(=O)c1c(OC)cccc1C3=O", "note": "[Valrubicin] (5000 nM)", "normalised response": 8.77}, {"smiles": "Cc1ccc(-c2cc(C(F)(F)F)nn2-c2ccc(S(N)(=O)=O)cc2)cc1", "note": "[Celecoxib] (10000 nM)", "normalised response": 97.4}, {"smiles": "Oc1ncc(N(CCCl)CCCl)c(O)n1", "note": "[Uracil mustard] (10000 nM)", "normalised response": 100}, {"smiles": "C=CCc1cccc(/C=N/NC(=O)CN2CCN(Cc3ccccc3)CC2)c1O", "note": "[PAC-1] (10000 nM)", "normalised response": 14.9}, {"smiles": "COc1cc2c(NC3CCN(C(C)C)CC3)nc(C3CCCCC3)nc2cc1OCCCN1CCCC1", "note": "[UNC0638] (10000 nM)", "normalised response": 2.89}, {"smiles": "C=CC(=O)Nc1cc2c(Nc3ccc(F)c(Cl)c3)ncnc2cc1OCCCN1CCOCC1", "note": "[Canertinib] (10000 nM)", "normalised response": 24.4}, {"smiles": "C=CC(=O)N1CCC[C@@H](n2nc(-c3ccc(Oc4ccccc4)cc3)c3c(N)ncnc32)C1", "note": "[Ibrutinib] (1000 nM)", "normalised response": 24.5}, {"smiles": "O=C(O)CCCCC(CCSCc1ccccc1)SCc1ccccc1", "note": "(stereo unspecified) [CPI-613] (10000 nM)", "normalised response": 106}, {"smiles": "CCc1cncnc1N1CCN(Cc2nc3ccc(C(F)(F)F)cc3[nH]2)CC1", "note": "(10000 nM)", "normalised response": 89.5}]}, {"tested_on": "CAL-51", "assay": "normalised response (% of control), CellTiter-Glo; higher = more viable cells (100 = DMSO, 0 = benzethonium chloride kill control)", "details": "incubation time: 72 h", "description": "as §1", "units": {"normalised response": "%"}, "values": [{"smiles": "CCCCC(=O)OCC(=O)[C@]1(O)Cc2c(O)c3c(c(O)c2[C@@H](O[C@H]2C[C@H](NC(=O)C(F)(F)F)[C@H](O)[C@H](C)O2)C1)C(=O)c1c(OC)cccc1C3=O", "note": "[Valrubicin] (5000 nM)", "normalised response": 0.2}, {"smiles": "Cc1ccc(-c2cc(C(F)(F)F)nn2-c2ccc(S(N)(=O)=O)cc2)cc1", "note": "[Celecoxib] (10000 nM)", "normalised response": 118}, {"smiles": "Oc1ncc(N(CCCl)CCCl)c(O)n1", "note": "[Uracil mustard] (10000 nM)", "normalised response": 78.5}, {"smiles": "C=CCc1cccc(/C=N/NC(=O)CN2CCN(Cc3ccccc3)CC2)c1O", "note": "[PAC-1] (10000 nM)", "normalised response": 5.5}, {"smiles": "COc1cc2c(NC3CCN(C(C)C)CC3)nc(C3CCCCC3)nc2cc1OCCCN1CCCC1", "note": "[UNC0638] (10000 nM)", "normalised response": 17}, {"smiles": "C=CC(=O)Nc1cc2c(Nc3ccc(F)c(Cl)c3)ncnc2cc1OCCCN1CCOCC1", "note": "[Canertinib] (10000 nM)", "normalised response": 3.06}, {"smiles": "C=CC(=O)N1CCC[C@@H](n2nc(-c3ccc(Oc4ccccc4)cc3)c3c(N)ncnc32)C1", "note": "[Ibrutinib] (1000 nM)", "normalised response": 85.7}, {"smiles": "O=C(O)CCCCC(CCSCc1ccccc1)SCc1ccccc1", "note": "(stereo unspecified) [CPI-613] (10000 nM)", "normalised response": 97.5}, {"smiles": "CCc1cncnc1N1CCN(Cc2nc3ccc(C(F)(F)F)cc3[nH]2)CC1", "note": "(10000 nM)", "normalised response": 49.3}]}, {"tested_on": "MDA-MB-436", "assay": "normalised response (% of control), CellTiter-Glo; higher = more viable cells (100 = DMSO, 0 = benzethonium chloride kill control)", "details": "incubation time: 72 h", "description": "as §1", "units": {"normalised response": "%"}, "values": [{"smiles": "CCCCC(=O)OCC(=O)[C@]1(O)Cc2c(O)c3c(c(O)c2[C@@H](O[C@H]2C[C@H](NC(=O)C(F)(F)F)[C@H](O)[C@H](C)O2)C1)C(=O)c1c(OC)cccc1C3=O", "note": "[Valrubicin] (5000 nM)", "normalised response": 35.4}, {"smiles": "Cc1ccc(-c2cc(C(F)(F)F)nn2-c2ccc(S(N)(=O)=O)cc2)cc1", "note": "[Celecoxib] (10000 nM)", "normalised response": 104}, {"smiles": "Oc1ncc(N(CCCl)CCCl)c(O)n1", "note": "[Uracil mustard] (10000 nM)", "normalised response": 99.1}, {"smiles": "C=CCc1cccc(/C=N/NC(=O)CN2CCN(Cc3ccccc3)CC2)c1O", "note": "[PAC-1] (10000 nM)", "normalised response": 17.8}, {"smiles": "COc1cc2c(NC3CCN(C(C)C)CC3)nc(C3CCCCC3)nc2cc1OCCCN1CCCC1", "note": "[UNC0638] (10000 nM)", "normalised response": 7.47}, {"smiles": "C=CC(=O)Nc1cc2c(Nc3ccc(F)c(Cl)c3)ncnc2cc1OCCCN1CCOCC1", "note": "[Canertinib] (10000 nM)", "normalised response": 22.2}, {"smiles": "C=CC(=O)N1CCC[C@@H](n2nc(-c3ccc(Oc4ccccc4)cc3)c3c(N)ncnc32)C1", "note": "[Ibrutinib] (1000 nM)", "normalised response": 109}, {"smiles": "O=C(O)CCCCC(CCSCc1ccccc1)SCc1ccccc1", "note": "(stereo unspecified) [CPI-613] (10000 nM)", "normalised response": 98.2}, {"smiles": "CCc1cncnc1N1CCN(Cc2nc3ccc(C(F)(F)F)cc3[nH]2)CC1", "note": "(10000 nM)", "normalised response": 95.7}]}, {"tested_on": "DU-4475", "assay": "normalised response (% of control), CellTiter-Glo; higher = more viable cells (100 = DMSO, 0 = benzethonium chloride kill control)", "details": "incubation time: 72 h", "description": "as §1", "units": {"normalised response": "%"}, "values": [{"smiles": "CCCCC(=O)OCC(=O)[C@]1(O)Cc2c(O)c3c(c(O)c2[C@@H](O[C@H]2C[C@H](NC(=O)C(F)(F)F)[C@H](O)[C@H](C)O2)C1)C(=O)c1c(OC)cccc1C3=O", "note": "[Valrubicin] (5000 nM)", "normalised response": 0.06}, {"smiles": "Cc1ccc(-c2cc(C(F)(F)F)nn2-c2ccc(S(N)(=O)=O)cc2)cc1", "note": "[Celecoxib] (10000 nM)", "normalised response": 101}, {"smiles": "Oc1ncc(N(CCCl)CCCl)c(O)n1", "note": "[Uracil mustard] (10000 nM)", "normalised response": 99.4}, {"smiles": "C=CCc1cccc(/C=N/NC(=O)CN2CCN(Cc3ccccc3)CC2)c1O", "note": "[PAC-1] (10000 nM)", "normalised response": 9.69}, {"smiles": "COc1cc2c(NC3CCN(C(C)C)CC3)nc(C3CCCCC3)nc2cc1OCCCN1CCCC1", "note": "[UNC0638] (10000 nM)", "normalised response": 71.8}, {"smiles": "C=CC(=O)Nc1cc2c(Nc3ccc(F)c(Cl)c3)ncnc2cc1OCCCN1CCOCC1", "note": "[Canertinib] (10000 nM)", "normalised response": 74.1}, {"smiles": "C=CC(=O)N1CCC[C@@H](n2nc(-c3ccc(Oc4ccccc4)cc3)c3c(N)ncnc32)C1", "note": "[Ibrutinib] (1000 nM)", "normalised response": 118}, {"smiles": "O=C(O)CCCCC(CCSCc1ccccc1)SCc1ccccc1", "note": "(stereo unspecified) [CPI-613] (10000 nM)", "normalised response": 100}, {"smiles": "CCc1cncnc1N1CCN(Cc2nc3ccc(C(F)(F)F)cc3[nH]2)CC1", "note": "(10000 nM)", "normalised response": 89.9}]}, {"tested_on": "Hs578T", "assay": "normalised response (% of control), CellTiter-Glo; higher = more viable cells (100 = DMSO, 0 = benzethonium chloride kill control)", "details": "incubation time: 72 h", "description": "as §1", "units": {"normalised response": "%"}, "values": [{"smiles": "CCCCC(=O)OCC(=O)[C@]1(O)Cc2c(O)c3c(c(O)c2[C@@H](O[C@H]2C[C@H](NC(=O)C(F)(F)F)[C@H](O)[C@H](C)O2)C1)C(=O)c1c(OC)cccc1C3=O", "note": "[Valrubicin] (5000 nM)", "normalised response": 34.1}, {"smiles": "Cc1ccc(-c2cc(C(F)(F)F)nn2-c2ccc(S(N)(=O)=O)cc2)cc1", "note": "[Celecoxib] (10000 nM)", "normalised response": 97.3}, {"smiles": "Oc1ncc(N(CCCl)CCCl)c(O)n1", "note": "[Uracil mustard] (10000 nM)", "normalised response": 98.3}, {"smiles": "C=CCc1cccc(/C=N/NC(=O)CN2CCN(Cc3ccccc3)CC2)c1O", "note": "[PAC-1] (10000 nM)", "normalised response": 73.5}, {"smiles": "COc1cc2c(NC3CCN(C(C)C)CC3)nc(C3CCCCC3)nc2cc1OCCCN1CCCC1", "note": "[UNC0638] (10000 nM)", "normalised response": 51.9}]}]}
